What was measured:
[1] = test system: BV2 cells; experiment: Microglia (BV2) migration, transwell; format: cell-based, mouse; conditions: LPS 1 μg/ml, 24 hours, compound 10 μM
Protocol: To determine the migration level of BV2 cells, 8 μm-sized transwells (35224, SPL) were used. 1×10^5 BV2 cells were seeded into the insertion transwells, and the lower wells were treated with the compound of Example 2 or Apocynin (NOX inhibitor) along with lipopolysaccharide (LPS, 1 μg/ml) as stimulus. After 24 hours of incubation, BV2 cells that migrated to the bottom of the insertion transwells were stained with crystal violet.

[2] = test system: rodent brain tumor glioblast cell line 7080; experiment: Glioblastoma cell growth inhibition, cell line 7080; format: cell-based; conditions: all concentrations (0.5 μm, 1 μM, and 2 μM)
Protocol: (§1) Cell growth experiments were performed to determine the effect of the compounds according to The present disclosure on the growth of brain tumor glioblast cells. Specifically, the rodent brain tumor glioblast cell line 7080 and the human glioblast cell line U87 were treated with the compound of Example 2 according to The present disclosure to determine the cell growth inhibitory effects, and the results are shown in FIG. 18.

[3] = test system: human glioblast cell line U87; experiment: Glioblastoma cell growth inhibition, U87; format: cell-based; conditions: 2 μM, starting 4 days after treatment
Protocol: as §1

With `O=C(Nc1nnc(-c2ccccc2)o1)c1ccc(F)c(C(F)(F)F)c1` [Example 2, 4-fluoro-N-(5-phenyl-1,3,4-oxadiazol-2-yl)-3-(trifluoromethyl)benzamide] the “LPS-induced increase in number of migrated BV2 cells” value [1] was “offset”, the “glioma cell growth of glioblast cell line 7080” value [2] was “strongly inhibited” and the “cell growth of human glioblast cell line U87” value [3] was “cell growth inhibition was observed”.

From patent US20250051293A1, “NOVEL OXADIAZOLE DERIVATIVE AND USE THEREOF” (CELROS BIOTECH, priority 2021, published 2025)
